From patent publication US20250270564A1, “EXTRACELLULAR VESICLE SECRETION BOOSTER FOR BOOSTING EXTRACELLULAR VESICLE SECRETION, AND USE THEREOF” (THEORIA SCIENCE INC., priority 2021, published 2025)

Tests used:
HCT116 = assay: Amount of secreted EVs (ExoScreen / NTA method); format: cell-based, human; details: inhibitor at 10 nmol/L or 100 nmol/L, FIG. 12
Protocol: For preparation of a secreted EV sample for the ExoScreen method, cells were cultured and supernatant was collected as follows. First, cells were seeded in a 96-well plate using a serum-supplemented medium (the medium according to the type of cells) at 5×10^3 cells/medium 0.1 mL/well (Day 0). After incubation for 24 hours (Day 1), […], and the cells were transfected with the miRNA using a transfection agent (product name Dhermafect1, manufactured by Dhermacon, the same shall apply hereinafter) according to the instructions for use. […]
(§1) For preparation of a secreted EV sample for the NTA method, cells were cultured and supernatant was collected and purified as follows. […] After collecting the supernatant, the number of cells in each well was counted. […]
EV detection was performed using an exosome marker CD9 or C63 according to the ExoScreen method. EV detection was performed using an AlphaLISA reagent (Perkin Elmer) composed of AlphaScreen streptavidin-coated donor beads (6760002), AlphaLISA unconjugated acceptor beads (6062011), and an AlphaLISA universal buffer (AL001F), a 96-well half-area white plate (6005560, Perkin Elmer), and a detection device EnSpire Alpha 2300 Mutilabel plate reader (Perkin Elmer). […] Next, luminescence in the wells of the plate was measured using the detection device with the excitation wavelength set to 680 nm and the emission detection wavelength set to 615 nm. […]

A549 = assay: Amount of secreted EVs (ExoScreen / NTA method); format: cell-based, human; details: inhibitor at 10 nmol/L or 100 nmol/L, FIG. 11
Protocol: For preparation of a secreted EV sample for the ExoScreen method, cells were cultured and supernatant was collected as follows. First, cells were seeded in a 96-well plate using a serum-supplemented medium (the medium according to the type of cells) at 5×10^3 cells/medium 0.1 mL/well (Day 0). After incubation for 24 hours (Day 1), 10 fmol of the miRNA was added, and the cells were transfected with the miRNA using a transfection agent (product name Dhermafect1, manufactured by Dhermacon, the same shall apply hereinafter) according to the instructions for use. […]
as §1
EV detection was performed using an exosome marker CD9 or C63 according to the ExoScreen method. EV detection was performed using an AlphaLISA reagent (Perkin Elmer) composed of AlphaScreen streptavidin-coated donor beads (6760002), AlphaLISA unconjugated acceptor beads (6062011), and an AlphaLISA universal buffer (AL001F), a 96-well half-area white plate (6005560, Perkin Elmer), and a detection device EnSpire Alpha 2300 Mutilabel plate reader (Perkin Elmer). […]

## CC(C)(Sc1cc(C(C)(C)C)c(O)c(C(C)(C)C)c1)Sc1cc(C(C)(C)C)c(O)c(C(C)(C)C)c1 [probucol]
HCT116
  EV secretion compared with NC: particularly effectively boosted EV secretion
A549
  EV secretion compared with NC: particularly effectively boosted EV secretion
